Assay results: patent publication US9169254B2, “Spiroimidazolone derivative” (Chugai Seiyaku Kabushiki Kaisha, priority 2009, dated 2015)

These compounds were tested against T1, human PTH1 receptor (Homo sapiens, UniProt Q03431) (assay: In vitro cAMP signal activity in HKRK-B7 cells (LLC-PK1 cells overexpressing the human PTH1 receptor)). Details: HKRK-B7 cells; compound at 1×10^−3 M; cAMP produced as percentage of that produced by hPTH(1-34) at 100 nM.
T1 sequence (Q03431 27-593): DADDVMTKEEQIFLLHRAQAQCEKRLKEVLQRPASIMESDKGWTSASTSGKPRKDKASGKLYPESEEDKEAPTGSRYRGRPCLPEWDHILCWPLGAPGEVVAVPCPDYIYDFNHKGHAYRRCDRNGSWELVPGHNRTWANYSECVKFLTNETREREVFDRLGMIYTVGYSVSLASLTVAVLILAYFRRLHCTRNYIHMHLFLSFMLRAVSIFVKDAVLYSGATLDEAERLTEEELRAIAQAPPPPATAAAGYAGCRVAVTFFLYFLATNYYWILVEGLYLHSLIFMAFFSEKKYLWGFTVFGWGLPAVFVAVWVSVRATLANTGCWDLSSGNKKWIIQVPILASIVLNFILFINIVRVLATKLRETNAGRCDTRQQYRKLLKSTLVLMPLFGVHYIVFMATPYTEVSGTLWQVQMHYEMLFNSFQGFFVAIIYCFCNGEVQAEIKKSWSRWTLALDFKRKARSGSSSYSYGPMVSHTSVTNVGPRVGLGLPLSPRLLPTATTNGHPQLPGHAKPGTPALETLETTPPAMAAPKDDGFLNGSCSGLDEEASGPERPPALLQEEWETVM
Type: cell-based

Row | cAMP production activity (%) | Structure (SMILES)
1 | 94% | Cc1cc(C(=O)N2CCC(C)(O)CC2)cc(C)c1/C=C/S(=O)(=O)N1CCC2(CC1)N=C(c1ccc(C(F)(F)F)c(OC(C)(C)C(F)(F)F)c1)NC2=O [Compound 1209, 8-{(E)-2-[4-(4-hydroxy-4-methyl-piperidine-1-carbonyl)-2,6-dimethyl-phenyl]-ethenesulfonyl}-2-[3-(2,2,2-trifluoro-1,1-dimethyl-ethoxy)-4-trifluoromethyl-phenyl]-1,3,8-triaza-spiro[4.5]dec-1-en-4-one]
2 | 137% | CCCCCc1ccc(C2=NC3(CCN(S(=O)(=O)/C=C/c4c(C)cc(N(C)C(N)=O)cc4C)CC3)C(=O)N2)cc1 [Compound 1021, 1-(3,5-dimethyl-4-{(E)-2-[4-oxo-2-(4-pentyl-phenyl)-1,3,8-triaza-spiro[4.5]dec-1-ene-8-sulfonyl]-vinyl}-phenyl)-1-methyl-urea]
3 | 74% | Cc1cc(N(CCOCCO)C(N)=O)cc(C)c1/C=C/S(=O)(=O)N1CCC2(CC1)N=C(C1CCC(CCC(F)(F)F)CC1)NC2=O (stereo not shown) [Compound 724, 1-[3,5-Dimethyl-4-((E)-2-{4-oxo-2-[4-(3,3,3-trifluoro-propyl)-cyclohexyl]-1,3,8-triaza-spiro[4.5]dec-1-ene-8-sulfonyl}-vinyl)-phenyl]-1-[2-(2-hydroxy-ethoxy)-ethyl]-urea]
4 | 69% | CC(=O)Nc1ccc(CCS(=O)(=O)N2CCC3(CC2)N=C(C2CCCCCC2)NC3=O)c(C)c1 [Compound 917, N-{4-[2-(2-Cycloheptyl-4-oxo-1,3,8-triaza-spiro[4.5]dec-1-ene-8-sulfonyl)-ethyl]-3-methyl-phenyl}-acetamide]
5 | 83% | CCCCCCCCCCCC1=NC2(CCN([S@TB17](=O)(=O)CCc3c(C)cc(N(C)C(N)=O)cc3C)CC2)C(=O)N1 [Compound 1141, 1-{3,5-dimethyl-4-[2-(4-oxo-2-undecyl-1,3,8-triaza-spiro[4.5]dec-1-ene-8-sulfonyl)-ethyl]-phenyl}-1-methyl-urea]
6 | 77% | CC(=O)N(CCO)c1cc(C)c(CCS(=O)(=O)N2CCC3(CC2)N=C(c2cccc(OC(F)(F)F)c2)NC3=O)cc1F [Compound 873, N-(2-fluoro-5-methyl-4-{2-[4-oxo-2-(3-trifluoromethoxy-phenyl)-1,3,8-triaza-spiro[4.5]dec-1-ene-8-sulfonyl]-ethyl}-phenyl)-N-(2-hydroxy-ethyl)-acetamide]
7 | 118% | CCCc1cc2ccc(C3=NC4(CCN(S(=O)(=O)CCc5c(C)cc(N(C)C(N)=O)cc5C)CC4)C(=O)N3)cc2o1 [Compound 1355, 1-(3,5-dimethyl-4-{2-[4-oxo-2-(2-propyl-benzofuran-6-yl)-1,3,8-triaza-spiro[4.5]dec-1-ene-8-sulfonyl]-ethyl}-phenyl)-1-methyl-urea]
8 | 55% | Cc1cc(CN(CCO)C(=O)OC(C)(C)C)ccc1CCS(=O)(=O)N1CCC2(CC1)N=C(C1CCCCC1)NC2=O [Compound 681, {4-[2-(2-Cyclohexyl-4-oxo-1,3,8-triaza-spiro[4.5]dec-1-ene-8-sulfonyl)-ethyl]-3-methyl-benzyl}-(2-hydroxy-ethyl)-carbamic acid tert-butyl ester]
9 | 80% | Cc1cc(C(=O)N2CCC(C)(O)CC2)cc(C)c1/C=C/S(=O)(=O)N1CCC2(CC1)N=C(c1ccc(OC(F)(F)C(F)F)cc1)NC2=O [Compound 1213, 8-{(E)-2-[4-(4-hydroxy-4-methyl-piperidine-1-carbonyl)-2,6-dimethyl-phenyl]-ethenesulfonyl}-2-[4-(1,1,2,2-tetrafluoro-ethoxy)-phenyl]-1,3,8-triaza-spiro[4.5]dec-1-en-4-one]
10 | 115% | Cc1cc(C(=O)N2CC(O)C2)cc(C)c1CCS(=O)(=O)N1CCC2(CC1)N=C(c1cccc(OC(F)(F)F)c1)NC2=O [Compound 965, 8-{2-[4-(3-hydroxy-azetidine-1-carbonyl)-2,6-dimethyl-phenyl]-ethanesulfonyl}-2-(3-trifluoromethoxy-phenyl)-1,3,8-triaza-spiro[4.5]dec-1-en-4-one]
11 | 36% | Cc1cc2ccc1CCS(=O)(=O)N1CCC3(CC1)N=C(NC3=O)c1cc(cc(C(F)(F)F)c1)OCCCCCCCCCCN(C)C2=O [Compound 1418]

Continued, compound first:

Row | Structure (SMILES) | cAMP production activity (%)
12 | CC1CCCC(C2=NC3(CCN(S(=O)(=O)c4cccc(Cl)c4)CC3)C(=O)N2)C1 (stereo not shown) [Compound 19, 8-(3-chloro-benzenesulfonyl)-2-(3-methyl-cyclohexyl)-1,3,8-triaza-spiro[4.5]dec-1-en-4-one] | 35%
13 | Cc1ccc(O)cc1/C=C/S(=O)(=O)N1CCC2(CC1)N=C(c1cccc(OC(F)(F)F)c1)NC2=O [Compound 227, 8-[(E)-2-(5-hydroxy-2-methyl-phenyl)-ethenesulfonyl]-2-(3-trifluoromethoxy-phenyl)-1,3,8-triaza-spiro[4.5]dec-1-en-4-one] | 87%
14 | CC(C)(C)OC(=O)N1CCCC(C2=NC3(CCN(S(=O)(=O)CCc4cccc5ccccc45)CC3)C(=O)N2)C1 (stereo not shown) [Compound 38, 3-[8-(2-Naphthalen-1-yl-ethanesulfonyl)-4-oxo-1,3,8-triaza-spiro[4.5]dec-1-en-2-yl]-piperidine-1-carboxylic acid tert-butyl ester] | 52%
15 | Cc1cc(C(=O)N(C)C)ccc1CCS(=O)(=O)N1CCC2(CC1)N=C(COc1ccc(F)c(F)c1F)NC2=O [Compound 176, 3,N,N-trimethyl-4-{2-[4-oxo-2-(2,3,4-trifluoro-phenoxymethyl)-1,3,8-triaza-spiro[4.5]dec-1-ene-8-sulfonyl]-ethyl}-benzamide] | 74%
16 | Cc1cc(C(=O)N(C)C)ccc1CCS(=O)(=O)N1CCC2(CC1)N=C(c1ccc(Cl)cc1C)NC2=O [Compound 128, 4-{2-[2-(4-chloro-2-methyl-phenyl)-4-oxo-1,3,8-triaza-spiro[4.5]dec-1-ene-8-sulfonyl]-ethyl}-3,N,N-trimethyl-benzamide] | 57%
17 | Cc1cc(C(=O)N2CCC(O)CC2)cc(C)c1/C=C/S(=O)(=O)N1CCC2(CC1)N=C(c1cccc(C(F)(F)F)c1F)NC2=O [Compound 244, 2-(2-fluoro-3-trifluoromethyl-phenyl)-8-{(E)-2-[4-(4-hydroxy-piperidine-1-carbonyl)-2,6-dimethyl-phenyl]-ethenesulfonyl}-1,3,8-triaza-spiro[4.5]dec-1-en-4-one] | 83%
18 | Cc1cc(C(=O)N(C)C)ccc1CCS(=O)(=O)N1CCC2(CC1)N=C(c1cccc(COCC(F)(F)F)c1)NC2=O [Compound 168, 3,N,N-Trimethyl-4-(2-{4-oxo-2-[3-(2,2,2-trifluoro-ethoxymethyl)-phenyl]-1,3,8-triaza-spiro[4.5]dec-1-ene-8-sulfonyl}-ethyl)-benzamide] | 69%
19 | CCCCCCCCCC1=NC2(CCN(S(=O)(=O)/C=C/c3c(C)cc(OCCC(O)CO)cc3C)CC2)C(=O)N1 (stereo not shown) [Compound 627, 8-{(E)-2-[4-(3,4-Dihydroxy-butoxy)-2,6-dimethyl-phenyl]-ethenesulfonyl}-2-nonyl-1,3,8-triaza-spiro[4.5]dec-1-en-4-one] | 5.3%
20 | Cc1cc(C(=O)N2CCN(C(C)C)CC2)ccc1/C=C/S(=O)(=O)N1CCC2(CC1)N=C(c1cccc(OC(F)(F)F)c1)NC2=O [Compound 598, 8-{(E)-2-[4-(4-isopropyl-piperazine-1-carbonyl)-2-methyl-phenyl]-ethenesulfonyl}-2-(3-trifluoromethoxy-phenyl)-1,3,8-triaza-spiro[4.5]dec-1-en-4-one] | 74%
21 | O=C1NC(C2CCCN(S(=O)(=O)Cc3ccccc3)C2)=NC12CCN(S(=O)(=O)c1cccc(Cl)c1)CC2 (stereo not shown) [Compound 42, 8-(3-chloro-benzenesulfonyl)-2-(1-phenylmethanesulfonyl-piperidin-3-yl)-1,3,8-triaza-spiro[4.5]dec-1-en-4-one] | 27%
22 | Cc1cc(C(=O)N2CC[C@@H](O)C2)cc(C)c1/C=C/S(=O)(=O)N1CCC2(CC1)N=C(c1cccc(OC(F)(F)F)c1)NC2=O [Compound 401, 8-{(E)-2-[4-((R)-3-hydroxy-pyrrolidine-1-carbonyl)-2,6-dimethyl-phenyl]-ethenesulfonyl}-2-(3-trifluoromethoxy-phenyl)-1,3,8-triaza-spiro[4.5]dec-1-en-4-one] | 83%
23 | O=C1NC(c2cccc(OC(F)(F)F)c2)=NC12CCN(S(=O)(=O)CCc1cccc3ncccc13)CC2 [Compound 654, 8-(2-quinolin-5-yl-ethanesulfonyl)-2-(3-trifluoromethoxy-phenyl)-1,3,8-triaza-spiro[4.5]dec-1-en-4-one] | 50%
24 | Cc1cc(NC[C@H](O)CO)ccc1CCS(=O)(=O)N1CCC2(CC1)N=C(c1ccc(OC(F)(F)F)cc1)NC2=O [Compound 156, 8-{2-[4-((S)-2,3-Dihydroxy-propylamino)-2-methyl-phenyl]-ethanesulfonyl}-2-(4-trifluoromethoxy-phenyl)-1,3,8-triaza-spiro[4.5]dec-1-en-4-one] | 64%
25 | CN(C)C(=O)c1ccc(-c2ccc(S(=O)(=O)N3CCC4(CC3)N=C(c3cccc(C(F)(F)F)c3)NC4=O)s2)cc1 [Compound 329, N,N-Dimethyl-4-{5-[4-oxo-2-(3-trifluoromethyl-phenyl)-1,3,8-triaza-spiro[4.5]dec-1-ene-8-sulfonyl]-thiophen-2-yl}-benzamide] | 33%
